Tests used:
[1] = Acute toxicity in ip dosed albino mouse after 24 hrs; assay type: organism-based; details: in vivo
Rattus norvegicus [2] = assay: Antiinflammatory activity against carrageenan-induced fisher 344 rat paw edema model assessed as inhibition of granuloma at 100 mg/kg; assay type: functional
Rattus norvegicus [3] = assay: Antiinflammatory activity against carrageenan-induced fisher 344 rat paw edema model assessed as reduction of paw volume at 50 mg/kg, ip after 3.5 hrs by plethysmometer; assay type: functional; details: fisher 344, ip, route intraperitoneal
Mus musculus [4] = assay: Toxicity in albino mouse assessed as toxic symptom at 500 to 1000 mg/kg, ip after 24 hrs; assay type: organism-based; set-up: dose 500-1000 mg/kg, route intraperitoneal; details: in vivo
Mus musculus [5] = assay: Toxicity in albino mouse assessed as mortality at 500 to 1000 mg/kg, ip after 24 hrs; assay type: organism-based; set-up: dose 500-1000 mg/kg, route intraperitoneal; details: in vivo
Rattus norvegicus [6] = assay: Antiinflammatory activity against carrageenan-induced fisher 344 rat paw edema model assessed as inhibition of granuloma; assay type: functional, organism-based

SMILES | LD50 at 24 h [1] [µmol/kg] | inhibition in vivo at 100 mg/kg (Rattus norvegicus [2]) [%] | inhibition in vivo at 50 mg/kg (Rattus norvegicus [3]) [%] | Activity (Mus musculus [4]) | Activity (Mus musculus [5]) | Activity (Rattus norvegicus [6])
CCOP1(=O)OC(C)=c2sc(Br)cc2=C1C#N (stereo not drawn) | > 300 | 62.8 | 62.8 |  |  | 
CCOC(=O)C1=c2cc(Br)sc2=C(C)OP1(=O)OCC (stereo not drawn) | > 300 | 60.4 | 60.4 |  |  | 
CCOP1(=O)OC2(C)C(=O)C=CC2(C)C1C(=O)OC (stereo not drawn) | > 300 | 63.2 | 63.2 |  |  | 
CCOP1(=O)OC(C)=c2sc(Br)cc2=C1C(=O)OC (stereo not drawn) | > 300 | 68.1 | 68.1 |  |  | 
COc1ccc2c(c1)c(CC(=O)O)c(C)n2C(=O)c1ccc(Cl)cc1 [INDOMETHACIN] | > 300 |  | 68.4 |  |  | 
CCOC(=O)C1C2(C)C=CC(=O)C2(C)OP1(=O)OCC (stereo not drawn) | > 300 | 59.7 | 59.7 |  |  | 
CCOP1(=O)OC2(C)C(=O)C=CC2(C)C1C#N (stereo not drawn) | > 300 | 66.6 | 66.6 |  |  | 
CCOP1(=O)OC(C)=c2sc(C(C(=O)OC)P(=O)(OCC)OCC)cc2=C1C(=O)OC (stereo not drawn) | > 300 |  | 75.9 | Non-toxic | Non-toxic | Dose-dependent effect
CCOP(=O)(/C=C\c1cc2c(s1)=C(C)OP(=O)(OCC)C=2C)OCC (stereo not drawn) | > 300 |  | 87.6 | Non-toxic | Non-toxic | 
CCOC(=O)C1=c2cc(C(C(=O)OCC)P(=O)(OCC)OCC)sc2=C(C)OP1(=O)OCC (stereo not drawn) | > 300 |  | 76.1 | Non-toxic | Non-toxic | Dose-dependent effect
CCOP1(=O)OC(C)=c2sc(C(C#N)P(=O)(OCC)OCC)cc2=C1C#N (stereo not drawn) | > 300 |  | 81.1 | Non-toxic | Non-toxic | 

— ChEMBL document CHEMBL1275304, “Use of phosphonyl carbanions in the synthesis of anti-inflammatory active phosphorus-containing fused heterocycles and relevance phosphonates” (Eur J Med Chem, 2010)
